Source: patent US11939320B2, “Modulators of the integrated stress pathway” (Calico Life Sciences LLC, priority 2017, dated 2024)

test system: HEK293T cells carrying the ATF4 luciferase reporter; test: ATF4-Luc assay (in vitro model of VWMD); format: cell-based; conditions: Homo sapiens, HEK-293T; HEK293T cells with ATF4 5'-UTR firefly luciferase reporter; 1 μg/mL tunicamycin; 7 hours; One Glo luminescence
Method: In order to test exemplary compounds of the invention in a cellular context, a stable VWMD cell line was first constructed. The ATF4 reporter was prepared by fusing the human full-length ATF4 5′-UTR (NCBI Accession No. BC022088.2) in front of the firefly luciferase (FLuc) coding sequence lacking the initiator methionine as described in Sidrauski et al (eLife 2013). The construct was used to produce recombinant retroviruses using standard methods and the resulting viral supernatant was used to transduce HEK293T cells, which were then subsequently selected with puromycin to generate a stable cell line.
HEK293T cells carrying the ATF4 luciferase reporter were plated on polylysine coated 384-well plates (Greiner Bio-one) at 30,000 cells per well. Cells were treated the next day with 1 μg/mL tunicamycin and 200 nM of a compound of Formula (I) for 7 hours. Luminescence was measured using One Glo (Promega) as specified by the manufacturer. Cells were maintained in DMEM with L-glutamine supplemented with 10% heat-inactivated FBS (Gibco) and Antibiotic-Antimycotic solution (Gibco).
Table 2 below summarizes the EC50 data obtained using the ATF4-Luc assay for exemplary compounds of the invention.

| Structure (SMILES) | EC50 [nM] |
| --- | --- |
| O=C(COc1ccc(Cl)c(Cl)c1)N[C@H]1CC[C@H](C(=O)NCc2ccc(OC(F)F)cn2)CC1 [Compound 120, (1r,4r)-4-[2-(3,4-dichlorophenoxy)acetamido]-N-{[5-(difluoromethoxy)pyridin-2-yl]methyl}cyclohexane-1-carboxamide] | 10 to 50 |
| O=C(COc1ccc(Cl)c(F)c1)N[C@H]1CC[C@H](C(=O)NCc2ncco2)CC1 [Compound 117, (1r,4r)-4-[2-(4-chloro-3-fluorophenoxy)acetamido]-N-[(1,3-oxazol-2-yl)methyl]cyclohexane-1-carboxamide] | > 2000 |
| O=C(COc1ccc(Cl)c(F)c1)N[C@H]1CC[C@H](C(=O)N2CC(c3ccc(Cl)cc3)C2)CC1 [Compound 129, 2-(4-chloro-3-fluorophenoxy)-N-{(1r,4r)-4-[3-(4-chlorophenyl)azetidine-1-carbonyl]cyclohexyl}acetamide] | < 10 |
| O=C(COc1ccc(Cl)c(F)c1)N[C@H]1CC[C@H](C(=O)N2CCC[C@@H]2c2cc(F)ccc2F)CC1 [Compound 113, 2-(4-chloro-3-fluorophenoxy)-N-{(1R,4r)-4-[(2R)-2-(2,5-difluorophenyl)pyrrolidine-1-carbonyl]cyclohexyl}acetamide] | > 2000 |
| O=C(COc1ccc(Cl)c(F)c1)N[C@H]1CC[C@H](C(=O)N(CCO)Cc2ccc(Cl)c(F)c2)CC1 [Compound 181, (1r,4r)-4-[2-(4-chloro-3-fluorophenoxy)acetamido]-N-[(4-chloro-3-fluorophenyl)methyl]-N-(2-hydroxyethyl)cyclohexane-1-carboxamide] | 500 to 2000 |
| O=C(COc1ccc(Cl)c(F)c1)N[C@H]1CC[C@H](C(=O)NCc2cc(OC3CCC3)ccn2)CC1 [Compound 170, (1r,4r)-4-[2-(4-chloro-3-fluorophenoxy)acetamido]-N-{[4-(cyclobutyloxy)pyridin-2-yl]methyl}cyclohexane-1-carboxamide] | > 2000 |
| O=C(COc1ccc(Cl)c(F)c1)N[C@H]1CC[C@H](C(=O)NCc2ccc(C(F)F)cn2)CC1 [Compound 187, (1r,4r)-4-[2-(4-chloro-3-fluorophenoxy)acetamido]-N-{[5-(difluoromethyl)pyridin-2-yl]methyl}cyclohexane-1-carboxamide] | 10 to 50 |
| COc1ccc(CNC(=O)[C@H]2CC[C@H](NC(=O)COc3ccc(Cl)c(Cl)c3)CC2)cn1 [Compound 105, (1r,4r)-4-[2-(3,4-dichlorophenoxy)acetamido]-N-[(6-methoxypyridin-3-yl)methyl]cyclohexane-1-carboxamide] | > 2000 |
| O=C(COc1ccc(Cl)c(F)c1)N[C@H]1CC[C@H](C(=O)NCc2nc3cc(F)c(F)cc3[nH]2)CC1 [Compound 153, (1r,4r)-4-[2-(4-chloro-3-fluorophenoxy)acetamido]-N-[(5,6-difluoro-1H-benzimidazol-2-yl)methyl]cyclohexane-1-carboxamide] | > 2000 |
| O=C(COc1ccc(Cl)c(F)c1)N[C@@H]1CC[C@@H](C(=O)N2CC(c3ccc(C(F)(F)F)cc3)C2)OC1 [Compound 134, 2-(4-chloro-3-fluorophenoxy)-N-[(3R,6S)-6-{3-[4-(trifluoromethyl)phenyl]azetidine-1-carbonyl}oxan-3-yl]acetamide] | < 10 |
| O=C(COc1ccc(Cl)c(F)c1)N[C@H]1CC[C@H](C(=O)N2CCC[C@H]2c2cc(F)ccc2F)CC1 [Compound 114, 2-(4-chloro-3-fluorophenoxy)-N-{(1S,4r)-4-[(2S)-2-(2,5-difluorophenyl)pyrrolidine-1-carbonyl]cyclohexyl}acetamide] | > 2000 |
| O=C(COc1ccc(Cl)c(F)c1)N[C@@H]1CC[C@@H](C(=O)NCc2ccc(Cl)c(F)c2)OC1 [Compound 185, (2S,5R)-5-[2-(4-chloro-3-fluorophenoxy)acetamido]-N-[(4-chloro-3-fluorophenyl)methyl]oxane-2-carboxamide] | 10 to 50 |
| O=C(COc1ccc(Cl)c(F)c1)N[C@@H]1CC[C@H](C(=O)NCc2ccc(C(F)(F)F)cn2)OC1 (single isomer, unassigned) [Compound 163] | > 2000 |
| O=C(COc1ccc(Cl)c(F)c1)N[C@@H]1CC[C@@H](C(=O)N2CCC(c3ccc(Cl)cc3)C2)OC1 (stereo partly drawn) [Compound 143, 2-(4-chloro-3-fluorophenoxy)-N-{(3R,6S)-6-[3-(4-chlorophenyl)pyrrolidine-1-carbonyl]oxan-3-yl}acetamide] | 500 to 2000 |
| O=C(COc1ccc(Cl)c(Cl)c1)N[C@@H]1CC[C@@H](C(=O)NCc2ccc(C(F)(F)F)cn2)OC1 [Compound 174, (2S,5R)-5-[2-(3,4-dichlorophenoxy)acetamido]-N-{[5-(trifluoromethyl)pyridin-2-yl]methyl}oxane-2-carboxamide] | 10 to 50 |
| O=C(COc1ccc(Cl)c(F)c1)N[C@H]1CC[C@H](C(=O)NCc2ccc(OC(F)F)cn2)CC1 [Compound 107, (1r,4r)-4-[2-(4-chloro-3-fluorophenoxy)acetamido]-N-{[5-(difluoromethoxy)pyridin-2-yl]methyl}cyclohexane-1-carboxamide] | 10 to 50 |
| O=C(NCc1ccc(C(F)(F)F)cn1)[C@@H]1CC[C@@H](NC(=O)[C@@H]2CNc3cc(Cl)ccc3O2)CO1 (single isomer, unassigned) [Compound 161] | 250 to 500 |
| O=C(COc1ccc(Cl)c(Cl)c1)N[C@H]1CC[C@H](C(=O)NCc2cc(CO)ccn2)CC1 [Compound 182, (1r,4r)-4-[2-(3,4-dichlorophenoxy)acetamido]-N-{[4-(hydroxymethyl)pyridin-2-yl]methyl}cyclohexane-1-carboxamide] | > 2000 |
| O=C(COc1ccc(Cl)c(F)c1)N[C@H]1CC[C@@H](C(=O)NCc2ccc(C(F)(F)F)cn2)OC1 (single isomer, unassigned) [Compound 162] | > 2000 |
| O=C(COc1ccc(Cl)c(F)c1)N[C@H]1CC[C@H](C(=O)N2CCN(c3ccc(Cl)cc3)CC2)CC1 [Compound 127, 2-(4-chloro-3-fluorophenoxy)-N-{(1r,4r)-4-[4-(4-chlorophenyl)piperazine-1-carbonyl]cyclohexyl}acetamide] | > 2000 |
| O=C(COc1ccc(Cl)c(F)c1)N[C@@H]1CC[C@@H](C(=O)N2CCn3c(nnc3C(F)(F)F)C2)OC1 [Compound 144, 2-(4-chloro-3-fluorophenoxy)-N-{(3R,6S)-6-[3-(trifluoromethyl)-5,6-dihydro[1,2,4]triazolo[4,3-a]pyrazine-7(8H)-carbonyl]oxan-3-yl}acetamide] | > 2000 |
| O=C(COc1ccc(Cl)c(F)c1)N[C@@H]1CC[C@@H](C(=O)NCc2nc3cc(F)c(F)cc3[nH]2)OC1 [Compound 156, (2S,5R)-5-[2-(4-chloro-3-fluorophenoxy)acetamido]-N-[(5,6-difluoro-1H-benzimidazol-2-yl)methyl]oxane-2-carboxamide] | 50 to 250 |
| O=C(COc1ccc(Cl)c(F)c1)N[C@H]1CC[C@H](C(=O)NCc2ccc3c(c2)OC(F)(F)O3)CC1 [Compound 179, (1r,4r)-4-[2-(4-chloro-3-fluorophenoxy)acetamido]-N-[(2,2-difluoro-2H-1,3-benzodioxol-5-yl)methyl]cyclohexane-1-carboxamide] | 10 to 50 |
| O=C(COc1ccc(Cl)c(F)c1)N[C@@H]1CC[C@@H](C(=O)Nc2nccc(-c3ccc(Cl)c(F)c3)n2)OC1 [Compound 145, (2S,5R)-5-[2-(4-chloro-3-fluorophenoxy)acetamido]-N-[4-(4-chloro-3-fluorophenyl)pyrimidin-2-yl]oxane-2-carboxamide] | 500 to 2000 |
